Article PMC3853718 (Journal of Translational Medicine, 2013)

Test system: subjects with advanced malignancies
Assay: Phase 1 dose escalation: toxicity, safety and tolerability (DLT, MAD, RP2D, AEs)
[1] = Dose level 0.33 mg/m^2, 1 subject
[2] = Dose level 0.66 mg/m^2, 1 subject
[3] = Dose level 1.32 mg/m^2, 1 subject
[4] = Dose level 2.59 mg/m^2, 4 subjects
[5] = Dose level 3.63 mg/m^2, 8 subjects
[6] = Dose level 5.08 mg/m^2, 3 subjects
[7] = Dose level 7.11 mg/m^2, 7 subjects
[8] = Dose level 10 mg/m^2, 3 subjects
[9] = Dose level 12 mg/m^2, 11 subjects

Procedure: Subjects continued on treatment until there was disease progression, unacceptable toxicity, or the subject withdrew consent. The trial employed an accelerated titration design [16] starting at a dose of 0.33 mg/m^2 (one-sixth of the highest nontoxic dose in dogs).
the dose was doubled in sequential subjects until a DLT was observed or a subject experienced grade 2 toxicity [16]. In the case of an observed grade 2 toxicity, a second subject was enrolled at the same dose level. If the second subject also experienced a grade 2 toxicity, 2 additional subjects were accrued at that dose level for a total of 4 subjects. […] Each subject was allocated to only a single dose level of drug. Dose delay or modification was permitted based on laboratory and clinical assessment performed on the day of treatment.
Dose-limiting toxicities were determined during the first cycle for each dose level. A DLT was defined as any grade 3 or 4 hematologic toxicity lasting for at least 1 week, or as any grade 3 or 4 nonhematologic toxicity. […] Normal alkaline phosphatase level (< grade 1) at screening that rose to greater than or equal to grade 3; grade 1 or 2 alkaline phosphatase level at screening that rose to grade 4; grade 1 or 2 aspartate aminotransferase (AST) and/or alanine aminotransferase (ALT) levels at screening that doubled from baseline to become greater than or equal to grade 3; and any other abnormal nonhematology laboratory value greater than or equal to grade 3 that required medical intervention to treat, led to hospitalization, or persisted for at least 1 week were also considered DLTs.
Adverse events were graded based on the National Cancer Institute Common Terminology Criteria for Adverse Events (NCI CTCAE version 3.0) and were coded using the Medical Dictionary for Regulatory Activities (MedDRA version 13.0).

CCc1cnn2c(NCc3ccc[n+]([O-])c3)cc(N3CCCC[C@H]3CCO)nc12 [dinaciclib]
TEAE: Abdominal distension (14 mg/m^2 (n = 5), Grade 3–4): 0 n (%)
TEAE: Abdominal pain (14 mg/m^2 (n = 5), Grade 3–4): 0 n (%)
TEAE: Anemia (14 mg/m^2 (n = 5), Grade 3–4): 1 (20) n (%)
TEAE: Asthenia (14 mg/m^2 (n = 5), Grade 3–4): 1 (20) n (%)
TEAE: Back pain (14 mg/m^2 (n = 5), Grade 3–4): 0 n (%)
TEAE: Constipation (14 mg/m^2 (n = 5), Grade 3–4): 0 n (%)
TEAE: Cough (14 mg/m^2 (n = 5), Grade 3–4): 0 n (%)
TEAE: Decreased appetite (14 mg/m^2 (n = 5), Grade 3–4): 0 n (%)
TEAE: Dehydration (14 mg/m^2 (n = 5), Grade 3–4): 0 n (%)
TEAE: Diarrhea (14 mg/m^2 (n = 5), Grade 3–4): 0 n (%)
TEAE: Dizziness (14 mg/m^2 (n = 5), Grade 3–4): 1 (20) n (%)
TEAE: Dyspnea (14 mg/m^2 (n = 5), Grade 3–4): 1 (20) n (%)
TEAE: Fatigue (14 mg/m^2 (n = 5), Grade 3–4): 0 n (%)
TEAE: Flatulence (14 mg/m^2 (n = 5), Grade 3–4): 0 n (%)
TEAE: Hyperbilirubinemia (14 mg/m^2 (n = 5), Grade 3–4): 1 (20) n (%)
TEAE: Hyperglycemia (14 mg/m^2 (n = 5), Grade 3–4): 1 (20) n (%)
TEAE: Hyperuricemia (14 mg/m^2 (n = 5), Grade 3–4): 1 (20) n (%)
TEAE: Hypokalemia (14 mg/m^2 (n = 5), Grade 3–4): 0 n (%)
TEAE: Hypophosphatemia (14 mg/m^2 (n = 5), Grade 3–4): 0 n (%)
TEAE: Increased ALP (14 mg/m^2 (n = 5), Grade 3–4): 1 (20) n (%)
TEAE: Increased ALT (14 mg/m^2 (n = 5), Grade 3–4): 0 n (%)
TEAE: Increased AST (14 mg/m^2 (n = 5), Grade 3–4): 0 n (%)
TEAE: Nausea (14 mg/m^2 (n = 5), Grade 3–4): 1 (20) n (%)
TEAE: Neutropenia (14 mg/m^2 (n = 5), Grade 3–4): 2 (40) n (%)
TEAE: Peripheral edema (14 mg/m^2 (n = 5), Grade 3–4): 0 n (%)
TEAE: Pyrexia (14 mg/m^2 (n = 5), Grade 3–4): 0 n (%)
TEAE: Subjects with any AE (14 mg/m^2 (n = 5), Grade 3–4): 5 (100) n (%)
TEAE: Urinary tract infection (14 mg/m^2 (n = 5), Grade 3–4): 0 n (%)
TEAE: Vomiting (14 mg/m^2 (n = 5), Grade 3–4): 1 (20) n (%)
TEAE: Weight decreased (14 mg/m^2 (n = 5), Grade 3–4): 0 n (%)
maximum administered dose (MAD) (2-hour IV infusion on days 1, 8, 15 of a 28-day cycle): 14 mg/m^2
TEAE: Abdominal distension (All doses (N = 48), All grades): 5 (10) n (%)
TEAE: Abdominal pain (All doses (N = 48), All grades): 8 (17) n (%)
TEAE: Anemia (All doses (N = 48), All grades): 19 (40) n (%)
TEAE: Asthenia (All doses (N = 48), All grades): 11 (23) n (%)
TEAE: Back pain (All doses (N = 48), All grades): 11 (23) n (%)
TEAE: Constipation (All doses (N = 48), All grades): 11 (23) n (%)
TEAE: Cough (All doses (N = 48), All grades): 5 (10) n (%)
TEAE: Decreased appetite (All doses (N = 48), All grades): 14 (29) n (%)
TEAE: Diarrhea (All doses (N = 48), All grades): 6 (13) n (%)
TEAE: Dizziness (All doses (N = 48), All grades): 5 (10) n (%)
TEAE: Dyspnea (All doses (N = 48), All grades): 7 (15) n (%)
TEAE: Fatigue (All doses (N = 48), All grades): 14 (29) n (%)
TEAE: Flatulence (All doses (N = 48), All grades): 6 (13) n (%)
TEAE: Hyperglycemia (All doses (N = 48), All grades): 7 (15) n (%)
TEAE: Hyperuricemia (All doses (N = 48), All grades): 5 (10) n (%)
TEAE: Hypokalemia (All doses (N = 48), All grades): 6 (13) n (%)
TEAE: Hypophosphatemia (All doses (N = 48), All grades): 6 (13) n (%)
TEAE: Increased ALP (All doses (N = 48), All grades): 8 (17) n (%)
TEAE: Increased ALT (All doses (N = 48), All grades): 6 (13) n (%)
TEAE: Increased AST (All doses (N = 48), All grades): 8 (17) n (%)
TEAE: Nausea (All doses (N = 48), All grades): 19 (40) n (%)
TEAE: Neutropenia (All doses (N = 48), All grades): 8 (17) n (%)
TEAE: Peripheral edema (All doses (N = 48), All grades): 7 (15) n (%)
TEAE: Pyrexia (All doses (N = 48), All grades): 8 (17) n (%)
TEAE: Subjects with any AE (All doses (N = 48), All grades): 47 (98) n (%)
TEAE: Urinary tract infection (All doses (N = 48), All grades): 12 (25) n (%)
TEAE: Vomiting (All doses (N = 48), All grades): 11 (23) n (%)
TEAE: Weight decreased (All doses (N = 48), All grades): 5 (10) n (%)
TEAE: Abdominal distension (All doses (N = 48), Grade 3–4): 0 n (%)
TEAE: Abdominal pain (All doses (N = 48), Grade 3–4): 2 (4) n (%)
TEAE: Anemia (All doses (N = 48), Grade 3–4): 5 (10) n (%)
TEAE: Asthenia (All doses (N = 48), Grade 3–4): 3 (6) n (%)
TEAE: Back pain (All doses (N = 48), Grade 3–4): 3 (6) n (%)
TEAE: Constipation (All doses (N = 48), Grade 3–4): 0 n (%)
TEAE: Cough (All doses (N = 48), Grade 3–4): 0 n (%)
TEAE: Decreased appetite (All doses (N = 48), Grade 3–4): 0 n (%)
TEAE: Dehydration (All doses (N = 48), Grade 3–4): 0 n (%)
TEAE: Diarrhea (All doses (N = 48), Grade 3–4): 0 n (%)
TEAE: Dyspnea (All doses (N = 48), Grade 3–4): 3 (6) n (%)
TEAE: Fatigue (All doses (N = 48), Grade 3–4): 2 (4) n (%)
TEAE: Flatulence (All doses (N = 48), Grade 3–4): 0 n (%)
TEAE: Hyperbilirubinemia (All doses (N = 48), Grade 3–4): 5 (10) n (%)
TEAE: Hyperglycemia (All doses (N = 48), Grade 3–4): 4 (8) n (%)
TEAE: Hyperuricemia (All doses (N = 48), Grade 3–4): 4 (8) n (%)
TEAE: Hypokalemia (All doses (N = 48), Grade 3–4): 2 (4) n (%)
TEAE: Hypophosphatemia (All doses (N = 48), Grade 3–4): 5 (10) n (%)
TEAE: Increased ALP (All doses (N = 48), Grade 3–4): 2 (4) n (%)
TEAE: Increased AST (All doses (N = 48), Grade 3–4): 2 (4) n (%)
TEAE: Nausea (All doses (N = 48), Grade 3–4): 1 (2) n (%)
TEAE: Neutropenia (All doses (N = 48), Grade 3–4): 5 (10) n (%)
TEAE: Peripheral edema (All doses (N = 48), Grade 3–4): 0 n (%)
TEAE: Pyrexia (All doses (N = 48), Grade 3–4): 0 n (%)
TEAE: Subjects with any AE (All doses (N = 48), Grade 3–4): 29 (60) n (%)
TEAE: Urinary tract infection (All doses (N = 48), Grade 3–4): 0 n (%)
TEAE: Weight decreased (All doses (N = 48), Grade 3–4): 0 n (%)
DLT [1]: None
Subjects with DLT in cycle 1 [1]: 0
DLT [2]: None
Subjects with DLT in cycle 1 [2]: 0
DLT [3]: None
Subjects with DLT in cycle 1 [3]: 0
DLT [4]: None
Subjects with DLT in cycle 1 [4]: 0
DLT [5]: Hypokalemia, hypocalcemia, hypophosphatemia
Subjects with DLT in cycle 1 [5]: 1
DLT [6]: None
Subjects with DLT in cycle 1 [6]: 0
DLT [7]: Deep vein thrombosis
Subjects with DLT in cycle 1 [7]: 1
DLT [8]: None
Subjects with DLT in cycle 1 [8]: 0
DLT [9]: Septic shock
Subjects with DLT in cycle 1 [9]: 1
DLT (Dose level 14 mg/m^2, 5 subjects): Orthostatic hypotension (1), elevated uric acid (1)
